Data from publication PMC11904948, “Peptide‐Drug Conjugate for Therapeutic Reprogramming of Tumor‐Associated Macrophages in Breast Cancer” (Advanced Science, 2025).

Columns and labels:
[1] = system: BMDM obtained from C57/Bl6 (B6) mice; experiment: Flow cytometry and real-time PCR on B6 BMDM; type: cell-based, mouse
Procedure: At the mRNA level, MACTIDE‐V induced a clear increase in Il‐12, Chil3 and Nos2 genes, (Figure 6D, left panel). […] To further investigate whether the effect of MACTIDE‐V was mediated by YAP targeting, we analyzed a set of 7 YAP‐regulated genes (Figure 6D, right panel).
Figure S6. In vitro effect of MACTIDE-V on B6 mice-derived BMDMs. (A) Flow cytometry on BMDMs 48 h after treatment. GeoMean of MHC II in B6 BMDM, n=4 independent experiments. *p≤0.05. (B) Heatmap of the mRNA expression of genes involved in the functional activation of BMDM, measured by real-time PCR 48 h after treatment in B6 BMDM, n=2 independent experiments.

Balb/c BMDM = experiment: Flow cytometry of marker expression on Balb/c BMDM; type: cell-based, mouse; conditions: 10 µM 4 h, 48 h after treatment, n = 4
Procedure: Figure 6 MACTIDE‐V promotes a YAP‐ mediated anti‐ tumoral switch in bone marrow‐derived macrophages. Day 5 BMDM were incubated for 4 h with 10 µM conjugates, washed, and followed‐up in media. A) YAP Immunofluorescence (shown in red) was analyzed 3 h after treatment and B) phagocytosis of fluorescent E. coli particles at 48 h follow‐up. C) Flow cytometry on BMDM 48 h after treatment. Left panel, GeoMean of MHC II, CD206, CD80, and PD‐L1 in Balb/c BMDM. Median ± interquartile range. Repeated measures one‐way ANOVA with multiple comparisons, for n = 4 independent experiments. ^* p ≤ 0.05, ^** p ≤ 0.01. D) Heatmap of the mRNA expression of genes involved in the functional activation of BMDM, YAP signaling, and adhesion, measured by real‐time PCR 48 h after treatment in BALB/c BMDM. n = 3 independent experiments. […]
At the mRNA level, MACTIDE‐V induced a clear increase in Il‐12, Chil3 and Nos2 genes, (Figure 6D, left panel). […] To further investigate whether the effect of MACTIDE‐V was mediated by YAP targeting, we analyzed a set of 7 YAP‐regulated genes (Figure 6D, right panel). […]

[2] = system: mouse bone marrow‐derived macrophages (BMDM); experiment: Phagocytosis of fluorescent E. coli particles by BMDM; type: cell-based; conditions: 10 µM 4 h, washed, 48 h follow-up, versus MACTIDE treated and untreated BMDM
Procedure: We then analyzed if MACTIDE‐V affected the phagocytic activity of BMDM in vitro.
For the E. coli phagocytosis assay, cells were cultured in a 96‐well plate and treated with conjugates as previously described (for 4 h at a 10 µM concentration at 37 °C, then peptide conjugates were removed, washed with media and fresh media was added). The phagocytosis assay was performed at 48 h after treatment removal by removing the media, incubating fluorescent E. coli BioParticles for 2 h, followed by a 1 min incubation with trypan blue (Vybrant Phagocytosis Assay Kit, Invitrogen, Cat# V6694). Plates were read at 480 nm excitation and 520 nm emission using a BioTek Synergy H1 plate reader.

## Vert‐Ahx‐G(CTKSIPPIC)SPGAK‐OH (disulfide) [MACTIDE‐V]
[1]; flow cytometry 48 h after treatment, n = 4
  MHCII expression in B6 BMDM (GeoMean): increased MHCII expression
[1]; real-time PCR 48 h after treatment, n = 2
  inflammatory gene mRNA expression in B6 BMDM: upregulated the inflammatory genes Il‐1b, Il‐12 and Nos2
Balb/c BMDM
  expression of CD80 (GeoMean): no significant changes
  expression of CD206 (GeoMean): no significant changes
Balb/c BMDM; versus CtrlPep‐V and untreated
  expression of MHC II (GeoMean): upregulated
  expression of PD‐L1 (GeoMean): upregulated
[2]
  phagocytosis of fluorescently labeled E. coli: significantly higher phagocytosis
